Test results: publication PMC9884808, “Pharmacokinetics, tissue distribution, and antitumor activity of a novel compound, NY-2, in non-small cell lung cancer” (Frontiers in Pharmacology, 2023)

Legend:
A549 cells [1] = assay: LDH activity assay; type: cell-based, human; settings: 48 h, increasing concentrations, vs control
Description: Cell viability was measured by the MTT assay. HCT116, HL7702, A549, H1993, HCC827, and H460 cells were dispensed into 96-well plates at a density of 1 × 10^5 cells/mL. After 24–48 h incubation, cells were treated with the compounds at different concentrations for the indicated periods. An assay kit (WLA073, Wanlei Co., Liaoning, China), was used according to the manufacturer’s instructions to measure LDH activity, The absorbance at 450 nm was measured with a microplate reader (Elx-800, Bio-Rad, China).

HUVECs = assay: MTT cytotoxicity on normal cells; type: cell-based, human; settings: concentration of 10 μM or below, 48 h
Description: The human colorectal cancer cell lines, HCT116 and LoVo, the breast cancer cell line, T47D, the hepatocellular carcinoma cell line, HepG2, the normal human liver cell line, HL7702, human umbilical vein endothelial cells (HUVECs), and the non-small cell lung cancer cell lines, A549, H1993, HCC827, H460, were purchased from the American Type Culture Collection (Manassas, VA, United States). Cell lines were cultured in the recommended RPMI-1640 medium (AE24464298, Hyclone, United States) and DMEM medium (AE29422278, Hyclone, United States) supplemented with 10% fetal bovine serum (FBS; JC63470, FB15015, Clark, United States) with 1% penicillin-streptomycin. […]
Cell viability was measured by the MTT assay. […] An assay kit (WLA073, Wanlei Co., Liaoning, China), was used according to the manufacturer’s instructions to measure LDH activity, The absorbance at 450 nm was measured with a microplate reader (Elx-800, Bio-Rad, China).
First, the effects of NY-2 and ZLDI-8 on the survival rates of four NSCLC cell lines, A549, H1993, HCC827, H460, were compared by the MTT cytotoxicity assay. The various types of NSCLC cells were incubated with increasing concentrations of NY-2 and ZLDI-8 (1.25, 2.5, 5, 10, and 20 μM), and the cell viability at 48 h was measured. […]

A549 cells [2] = assay: Transwell invasion assay; type: cell-based, human; settings: 48 h
Description: For the transwell invasion assay, Matrigel (50 mg/L) was diluted 1:8 with serum-free medium, and 60 μL of diluted Matrigel was pipetted into each transwell (Corning, NY, United States) and incubated overnight. The upper chamber was seeded with 1× 10^5 cells that had been starved for 24 h in 100 µL of serum-free medium, and 700 µL of medium with 10% FBS was added to the lower compartment. After cultivation for 48 h at 37°C, the cells in the upper chamber were removed with a cotton swab, and the cells on the lower surface of the filter were fixed with methanol for 20 min and stained with 0.1% crystal violet after drying. Excess stain was eluted with 33% acetic acid, and the absorbance was measured at 490 nm.

A549 cells [3] = assay: Colony formation assay; type: cell-based, human; settings: 2.5, 5, 10 μM; 9 days of growth
[4] = Metabolic stability, liver microsome incubation; type: in vitro ADME; settings: 100 μM
Description: Rat liver microsomes (RLMS) and human liver microsomes (HLMs) were purchased from RILD and BioIVT, respectively.The metabolic stability of 100 μm Zldi-8 and NY-2 in rat and human liver microsomes was investigated. Zldi-8/NY-2(100 ΜM)10 μl, mgcl210 ΜL, RLMs/HLMs 62.5 μl, PBS (ph 7.4)117.5 μl, NADPH 50 ΜL were added to the metabolic incubation system in ice bath, respectively.After adding in sequence, the incubation systems were pre-incubated for 3 min in a 37 ° C incubator, and then NADPH was added to start the reaction, and the incubation systems were removed at 0 min, 5 min, 10 min, 20 min, 30 min, 60 min, 90 min, 50 ΜL incubation solution was taken out respectively, and the reaction was stopped by rapidly adding equal volume of ice acetonitrile solution containing propranolol hydrochloride (internal standard) , vortex for 3 min, centrifugation at 4 ° C, 9500 rpm for 10 min, the content of the supernatant was determined by HPLC.The experiment was repeated three times in parallel.

A549 cells [5] = assay: Wound-healing migration assay; type: cell-based, human; settings: 48 h
Description: A wound-healing assay was used to assess the migration ability. Cells were seeded into 6-well plates at 3 × 10^5 cells per well. At about 90% confluence, uniform scratches were made in the monolayer using a sterile 200 μL pipet tip. After washing with phosphate-buffered saline (PBS), the cells were cultured in 2% FBS medium and photos were taken at 0 and 48 h. The rate of cell migration was determined by measuring the decrease in gap with compared to the initial gap at 0 h. Readings were performed independently in triplicate.

[6] = Acute toxicity assay in KM mice; type: in vivo; settings: tail vein injection 1000 mg/kg in saline, 10 days observation, 6 animals per group
Description: An acute toxicity assay was assessed in KM mice by tail vein injection of NY-2 dissolved in saline at a dose of 1000 mg/kg (6 animals per group).

Cc1c(C=C2C(=O)NC(=S)NC2=O)c2ccccc2n1CCOc1ccc(F)cc1 [NY-2]
LDH activity in cell culture supernatants (A549 cells [1]): increased in a concentration-dependent manner
cytotoxic effects on HUVEC cells (HUVECs): no obvious cytotoxic effects
invasion of A549 cells (A549 cells [2]): inhibit the invasion and migration of A549 cells in a concentration-dependent manner
colony formation of A549 cells (A549 cells [3]): inhibit colony formation of A549 cells in a concentration-dependent manner
residual level (metabolic stability) ([4]; human liver microsomes): greater than that of ZLDI-8
residual level (metabolic stability) ([4]; rat liver microsomes): greater than that of ZLDI-8
migration of A549 cells (A549 cells [5]): inhibit the invasion and migration of A549 cells in a concentration-dependent manner
deaths in acute toxicity assay [6]: no deaths occurred
